Results published in patent US10508105B2, “Indazole compounds as mGluR4 allosteric potentiators, compositions, and methods of treating neurological dysfunction” (Vanderbilt University, priority 2017, dated 2019).

Biological target: human mGlu4 (Homo sapiens (Human), UniProt Q14833)
Test: mGlu4 PAM assay in human mGlu4/Gqi5 cells with ~EC20 glutamate (Hamamatsu FDSS)
Assay type: cell-based
Settings: ~EC20 concentration of glutamate, read-out: mGlu4 PAM EC50
Procedure: The disclosed compounds and compositions can be evaluated for their ability to act as a potentiatior of metabotropic glutamate receptor activity, in particular mGluR4 activity, by any suitable known methodology known in the art. For example, Chinese Hamster Ovary (CHO) cells transfected with human mGluR4 or HEK cells co-transfected with rat mGluR4 and the G-protein regulated Inwardly Rectifying Potassium channel (GIRK) were plated in clear bottom assay plates for assay in a Hamamatsu FDSS Fluorometric Plate Reader. The cells were loaded with either a Ca2+-sensitive fluorescent dye or the thallium responsive dye and the plates were washed and placed into a suitable kinetic plate reader. For human mGluR4 assays, a fluorescence baseline was established for 3-5 seconds, the disclosed compounds were then added to the cells, and the response in cells was measured. Approximately two and a half minutes later, a concentration of mGluR4 orthosteric agonist (e.g. glutamate, L-AP4, or L-SOP) eliciting approximately 20% (EC20) of the maximal agonist response was added to the cells, and the response was measured. Two minutes later, a concentration of mGluR4 agonist (e.g. glutamate, L-AP4, or L-SOP) eliciting 80% (EC80) of the maximal agonist response was added to the cells, and the response was measured. For rat mGluR4/GIRK experiments, a baseline was established for approximately five seconds, disclosed compounds were added, and either an EC20 or EC80 concentration of agonist was added approximately two and one half minutes later.
The above described assay operated in two modes. In the first mode, a range of concentrations of the disclosed compounds are added to cells, followed by a single fixed concentration of agonist. If the compound acts as a potentiatior, an EC50 value for potentiation and a maximum extent of potentiation by the compound at this concentration of agonist is determined by non-linear curve fitting. If the compound acts as an antagonist, an IC50 value is determined by non-linear curve fitting. In the second mode, several fixed concentrations of the disclosed compounds are added to various wells on a plate, followed by a range in concentrations of agonist for each concentration of disclosed compound. The EC50 values for the agonist at each concentration of compound are determined by non-linear curve fitting. A decrease in the EC50 value of the agonist with increasing concentrations of the sample compound (a leftward shift of the agonist concentration-response curve) is an indication of the degree of mGluR4 potentiation at a given concentration of the sample compound. A decrease in the maximal response of the agonist with increasing concentrations of the sample compounds, with or without a rightward shift in agonist potency, is an indication of the degree of antagonism at mGluR4. The second mode also indicates whether the sample compounds also affect the maximum response to mGluR4 to agonists.

Chain of human mGlu4 (Q14833 33-912): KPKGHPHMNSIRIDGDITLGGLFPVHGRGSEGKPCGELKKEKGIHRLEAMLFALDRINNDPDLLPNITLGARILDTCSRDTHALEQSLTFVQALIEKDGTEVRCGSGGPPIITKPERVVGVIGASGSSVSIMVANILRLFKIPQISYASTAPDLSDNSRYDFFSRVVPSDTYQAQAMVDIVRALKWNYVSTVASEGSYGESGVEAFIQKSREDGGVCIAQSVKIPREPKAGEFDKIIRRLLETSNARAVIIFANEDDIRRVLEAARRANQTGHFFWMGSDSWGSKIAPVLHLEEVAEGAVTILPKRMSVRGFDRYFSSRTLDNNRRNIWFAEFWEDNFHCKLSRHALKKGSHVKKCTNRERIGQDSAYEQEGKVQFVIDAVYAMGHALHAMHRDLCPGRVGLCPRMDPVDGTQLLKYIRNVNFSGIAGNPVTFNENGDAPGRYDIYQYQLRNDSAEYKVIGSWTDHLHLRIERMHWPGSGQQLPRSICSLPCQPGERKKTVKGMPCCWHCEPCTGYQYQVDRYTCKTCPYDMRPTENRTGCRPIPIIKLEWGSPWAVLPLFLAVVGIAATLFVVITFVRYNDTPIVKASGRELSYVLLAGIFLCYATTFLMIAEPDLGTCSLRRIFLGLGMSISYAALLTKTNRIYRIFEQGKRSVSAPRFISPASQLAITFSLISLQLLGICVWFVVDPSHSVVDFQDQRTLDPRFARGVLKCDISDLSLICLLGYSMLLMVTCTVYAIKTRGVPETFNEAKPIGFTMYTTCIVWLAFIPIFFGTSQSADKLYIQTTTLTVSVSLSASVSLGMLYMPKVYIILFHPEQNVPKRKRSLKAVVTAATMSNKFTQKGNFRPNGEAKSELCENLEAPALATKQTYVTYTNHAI

Compound	EC50
Cn1nc(OC2CCS(=O)(=O)CC2)c2ccc(NC(=O)c3ccccn3)cc21 [Compound 39]	417 nM
Cn1nc(OC2CCS(=O)(=O)C2)c2ccc(NC(=O)c3ccccn3)cc21 (centres unmarked) [Compound 53]	272 nM
Cn1nc(OC2COC2)c2ccc(Nc3n[nH]c4cccnc34)cc21 [Compound 22]	629 nM
Cn1nc(OCC2CCOC2)c2ccc(NC(=O)c3ncccc3F)cc21 (centres unmarked) [Compound 97]	505 nM
Cn1nc(OC2CCOC(C)(C)C2)c2ccc(Nc3n[nH]c4cccnc34)cc21 (centres unmarked) [Compound 63]	169 nM
Cn1nc(OCC2CCOC2)c2ccc(Nc3n[nH]c4cccnc34)cc21 (centres unmarked) [Compound 49]	30.5 nM
CCCOc1nn(C)c2cc(Nc3n[nH]c4cccnc34)ccc12 [Compound 9]	171 nM
Cn1nc(OCCOc2ccccc2F)c2ccc(Nc3n[nH]c4cccnc34)cc21 [Compound 19]	483 nM
Cn1nc(OCC2CCOC2)c2ccc(NC(=O)c3ccccn3)cc21 (centres unmarked) [Compound 114]	81.2 nM
COCCCOc1nn(C)c2cc(Nc3n[nH]c4cccnc34)ccc12 [Compound 30]	172 nM
Cn1nc(OCC2CCOC2)c2ccc(NC(=O)c3ncc(F)cc3F)cc21 (centres unmarked) [Compound 100]	801 nM
Cn1nc(OCC2CCOC2)c2ncc(Nc3n[nH]c4cccnc34)cc21 (centres unmarked) [Compound 60]	293 nM
COCCOc1nn(C)c2cc(Nc3n[nH]c4ncccc34)ccc12 [Compound 34]	529 nM
Cn1nc(OCCN2CCOCC2)c2ccc(NC(=O)c3ncccc3O)cc21 [Compound 78]	255 nM
Cn1nc(OC2CCS(=O)(=O)CC2)c2ccc(NC(=O)c3ncccc3O)cc21 [Compound 41]	403 nM
Cn1nc(OC[C@H]2CCOC2)c2ncc(NC(=O)c3ncccc3N)cc21 [Compound 84]	166 nM
Cn1nc(OC2CCOC2)c2ccc(Nc3n[nH]c4cccnc34)cc21 (centres unmarked) [Compound 28]	726 nM
Cn1nc(OC2CCOC(C)(C)C2)c2ccc(NC(=O)c3ncccc3O)cc21 (centres unmarked) [Compound 69]	117 nM
Cn1nc(OC2CCOCC2F)c2ccc(NC(=O)c3ncccc3N)cc21 (centres unmarked) [Compound 71]	125 nM
CC1CC(COc2nn(C)c3cc(NC(=O)c4ccccn4)ccc23)CC(C)O1 (centres unmarked) [Compound 107]	45.1 nM
Cn1nc(OCC2CCOC2)c2ncc(NC(=O)c3ccccn3)cc21 (centres unmarked) [Compound 55]	873 nM
Cn1nc(Oc2ccc(C#N)cn2)c2c(Cl)cc(Nc3n[nH]c4cccnc34)cc21 [Compound 25]	482 nM
Cn1nc(OC2CCOC(C)(C)C2)c2ccc(NC(=O)c3ccccn3)cc21 (centres unmarked) [Compound 67]	80.2 nM
Cc1ccoc1C(=O)Nc1ccc2c(OCC3CCOC3)nn(C)c2c1 (centres unmarked) [Compound 96]	339 nM
Cn1nc(OC[C@@H]2CCOC2)c2ncc(NC(=O)c3ncccc3N)cc21 [Compound 83]	120 nM

Compound	EC50
Cn1nc(OCC(F)(F)F)c2ccc(Nc3n[nH]c4cccnc34)cc21 [Compound 13]	175 nM
Cn1nc(OC2CCOC(C)(C)C2)c2ccc(NC(=O)c3ncccc3N)cc21 (centres unmarked) [Compound 68]	131 nM
Cn1nc(OCCN2CCOCC2)c2ccc(NC(=O)c3ncccc3N)cc21 [Compound 77]	133 nM
Cn1nc(OCc2ccncc2)c2ccc(Nc3n[nH]c4cccnc34)cc21 [Compound 10]	65.7 nM
Cn1nc(OCC2CCOC2)c2ccc(NC(=O)c3cccc(Cl)n3)cc21 (centres unmarked) [Compound 99]	820 nM
Cn1nc(OC[C@@H]2CCOC2)c2ccc(NC(=O)c3ncccc3N)cc21 [Compound 79]	27.3 nM
Cn1nc(OCC2COC(C)(C)C2)c2ccc(NC(=O)c3ncccc3N)cc21 (centres unmarked) [Compound 102]	109 nM
Cn1nc(OC2CCOCC2F)c2ccc(Nc3n[nH]c4cccnc34)cc21 (centres unmarked) [Compound 64]	89 nM
Cn1nc(Oc2ncccc2C#N)c2ccc(Nc3n[nH]c4cccnc34)cc21 [Compound 15]	184 nM
Cn1nc(OCCOc2ccc(F)cc2)c2ccc(Nc3n[nH]c4cccnc34)cc21 [Compound 18]	852 nM
Cn1nc(OCC2CCOCC2)c2ncc(Nc3n[nH]c4ncccc34)cc21 [Compound 62]	353 nM
Cn1nc(Oc2cccc(C#N)n2)c2ccc(Nc3n[nH]c4cccnc34)cc21 [Compound 16]	111 nM
Cn1nc(OCCN2CCOCC2)c2ccc(Nc3n[nH]c4cccnc34)cc21 [Compound 21]	238 nM
Cn1nc(OCC2CCOCC2)c2ccc(Nc3n[nH]c4cccnc34)cc21 [Compound 51]	40.4 nM
Cn1nc(OCC2COCCO2)c2ccc(Nc3n[nH]c4cccnc34)cc21 (centres unmarked) [Compound 35]	361 nM
Cn1nc(OCC2COCCO2)c2ccc(NC(=O)c3ncccc3N)cc21 (centres unmarked) [Compound 82]	66.1 nM
Cn1nc(Oc2ccc(C#N)cn2)c2ccc(Nc3n[nH]c4cccnc34)cc21 [Compound 11]	157 nM
Cn1nc(OCC2COC(C)(C)C2)c2ccc(NC(=O)c3ccc(F)cn3)cc21 (centres unmarked) [Compound 103]	297 nM
Cn1nc(OCC2CCOC2)c2ccc(NC(=O)c3ncccc3O)cc21 (centres unmarked) [Compound 44]	53 nM
Cn1nc(OC2CCS(=O)(=O)C2)c2ccc(NC(=O)c3ncccc3N)cc21 (centres unmarked) [Compound 54]	117 nM
Cn1nc(OCC2CCOC2)c2ccc(NC(=O)c3cc(F)ccn3)cc21 (centres unmarked) [Compound 98]	991 nM
Cn1nc(OCC2CCOC2)c2ccc(NC(=O)c3ccc(F)cn3)cc21 (centres unmarked) [Compound 91]	49.6 nM
[2H]C([2H])([2H])Oc1nn(C)c2cc(Nc3n[nH]c4cccnc34)ccc12 [Compound 8]	294 nM
Cn1nc(OC[C@@H]2COCCO2)c2ccc(NC(=O)c3ncccc3N)cc21 [Compound 130]	24.6 nM
Cn1nc(OC[C@@H]2COCCO2)c2ccc(NC(=O)c3ncccc3N)cc21 [Compound 93]	30.5 nM

Compound	EC50
Cn1nc(OC2CCS(=O)(=O)CC2)c2ccc(Nc3n[nH]c4ncccc34)cc21 [Compound 48]	335 nM
Cn1nc(OC2CCOC[C@H]2F)c2ccc(NC(=O)c3ncccc3O)cc21 (some centres unmarked) [Compound 72]	132 nM
Cn1nc(OCC2CCOCC2)c2ncc(Nc3n[nH]c4cccnc34)cc21 [Compound 61]	209 nM
Cn1nc(OCc2ccccn2)c2ccc(Nc3n[nH]c4cccnc34)cc21 [Compound 17]	462 nM
Cn1nc(OCCN2CCOCC2)c2ccc(NC(=O)c3ccccn3)cc21 [Compound 76]	703 nM
Cn1nc(OCCN2CCOCC2)c2ccc(Nc3n[nH]c4ncccc34)cc21 [Compound 66]	398 nM
CC1CC(Oc2nn(C)c3cc(NC(=O)c4ncccc4N)ccc23)CCO1 (centres unmarked) [Compound 74]	431 nM
Cn1nc(OCC2CCOCC2)c2ccc(NC(=O)c3ncccc3O)cc21 [Compound 118]	36.8 nM
CC1CC(COc2nn(C)c3cc(NC(=O)c4ncccc4N)ccc23)CC(C)O1 (centres unmarked) [Compound 108]	187 nM
Cn1nc(OCC2CC2(F)F)c2ccc(Nc3n[nH]c4cccnc34)cc21 (centres unmarked) [Compound 31]	112 nM
Cn1nc(OCC2CCOC2)c2ccc(NC(=O)c3cccc(F)n3)cc21 (centres unmarked) [Compound 95]	211 nM
Cn1nc(OCC2CCCOC2)c2ccc(NC(=O)c3ncccc3N)cc21 (centres unmarked) [Compound 86]	182 nM
Cc1cc(COc2nn(C)c3cc(Nc4n[nH]c5cccnc45)ccc23)no1 [Compound 12]	203 nM
Cn1nc(OCC2CCCOC2)c2ncc(NC(=O)c3ncccc3N)cc21 (centres unmarked) [Compound 89]	181 nM
Cn1nc(OC2CCOC[C@H]2F)c2ccc(NC(=O)c3ccccn3)cc21 (some centres unmarked) [Compound 70]	84.7 nM
Cn1nc(OCC2CCOC2)c2ccc(Nc3n[nH]c4ncccc34)cc21 (centres unmarked) [Compound 50]	135 nM
Cn1nc(OC[C@H]2COCCO2)c2ccc(NC(=O)c3ccccn3)cc21 [Compound 81]	205 nM
Cn1nc(OC2CCS(=O)(=O)CC2)c2ccc(Nc3n[nH]c4cccnc34)cc21 [Compound 29]	214 nM
Cn1nc(OCC2CCOC(C)(C)C2)c2ccc(NC(=O)c3ncccc3N)cc21 (centres unmarked) [Compound 105]	127 nM
Cn1nc(OC2CCS(=O)(=O)CC2)c2ccc(NC(=O)c3ncccc3N)cc21 [Compound 113]	142 nM
Cn1nc(O[C@H]2CCOC2)c2ccc(Nc3n[nH]c4cccnc34)cc21 [Compound 32]	456 nM
Cn1nc(OCC2CCOC2)c2ccc(NC(=O)c3nccnc3N)cc21 (centres unmarked) [Compound 92]	115 nM
Cn1nc(OCC2CCCOC2)c2ccc(NC(=O)c3ncccc3O)cc21 (centres unmarked) [Compound 87]	100 nM
Cn1nc(OCC2CCCCO2)c2ccc(Nc3n[nH]c4cccnc34)cc21 (centres unmarked) [Compound 14]	85.6 nM
